# Like-named read-outs stand apart in the source and are kept apart here.
# What was measured:
# [1] = system: Hep 3B/T2 cells; experiment: Tumor growth of Hep 3B/T2 cells in nude mice; type: in vivo, BALB/c-nu/nu nude mice
# Text: The descriptive statistics were summarized as mean±STD. For statistical analysis, Student's t-test was used to determine significance of mean differences between groups.
# [2] = MTT cell viability assay, Hep G2 cells (serum-free DMEM); conditions: human, Hep G2 cells, Cell viability
# Text: (§1) Human hepatoma cell lines Hep G2 and Hep 3 were chosen as the in vitro models of hepatocytes and hepatoma, respectively.
# [3] = system: Hep G2 cells; experiment: as above; conditions: for IC50: Homo sapiens; for Cell viability (cell number): LOV 50 μM 48 hr
# Text: as §1
# [4] = system: Hep 3B cells; experiment: Cell cycle determination by flow cytometry, Hep 3B; type: cell-based, human; conditions: cell line not given
# [5] = Cycle 2 (Day 63), LOV 37.5 mg/kg/day p.o. days 28-34 and 49-55 and/or taxol 120 μg/kg/2 day i.p. day 36, 38, 40, 57, 59, 61
compound,measurement,setting,value
"CC[C@H](C)C(=O)O[C@H]1C[C@@H](C)C=C2C=C[C@H](C)[C@H](CC[C@@H]3C[C@@H](O)CC(=O)O3)[C@H]21 [Lovastatin, lovastatin]",Tumor size,"[1]; Cycle 1 (Day 42), LOV 37.5 mg/kg/day p.o. days 28-34 and 49-55 and/or taxol 120 μg/kg/2 day i.p. day 36, 38, 40, 57, 59, 61",0.533 cm^3
same,Tumor size,[1]; [5],1.263 cm^3
same,percentage of inhibition of tumor size,[1]; [5],(−49.5%
same,Tumor size,"[1]; Day 15, LOV 75 mg/kg/day p.o. days 8-14 and/or taxol 120 μg/kg/day i.p. days 15-19, n = 3",0.050 cm^3
same,Tumor size,"[1]; Day 20, LOV 75 mg/kg/day p.o. days 8-14 and/or taxol 120 μg/kg/day i.p. days 15-19, n = 3",0.051 cm^3
same,Tumor size,"[1]; Day 23, LOV 75 mg/kg/day p.o. days 8-14 and/or taxol 120 μg/kg/day i.p. days 15-19, n = 3",0.059 cm^3
same,Tumor size (1 × w^2 × 0.52 cm^3) Day 28,"[1]; Day 28 after inoculation of 1 × 10^7 Hep 3B/T2 cells in male BALB/c-nu/nu nude mice, p.o. lovastatin 37.5 mg/kg/day (days 28-34, 49-55) and/or i.p. taxol 120 μg/kg/2 day (days 36, 38, 40, 57, 59, 61), mean ± SEM",0.170 cm^3
same,Tumor size,"[1]; after two cycles: lovastatin fed 7 days, then paclitaxel injected 3 days (FIG. 38), mean±STD",1.26±1.82 cm^3
same,"viability at 48 h, 1 μM","[2]; LOV 1 μM, 48 hr",91.8 ± 2.1%
same,"viability at 72 h, 1 μM","[2]; LOV 1 μM, 72 hr",88.7 ± 1.3%
same,"viability at 48 h, 2 μM","[2]; LOV 2 μM, 48 hr",90.7 ± 1.5%
same,"viability at 72 h, 2 μM","[2]; LOV 2 μM, 72 hr",86.2 ± 1.9%
same,"viability at 48 h, 5 μM","[2]; LOV 5 μM, 48 hr",87.2 ± 3.1%
same,"viability at 48 h, 5 μM","[2]; LOV 5 μM, 48 hr, Table 4",87.2 ± 3.1%
same,"viability at 72 h, 5 μM","[2]; LOV 5 μM, 72 hr",80.9 ± 4.4%
same,"viability at 72 h, 5 μM","[2]; LOV 5 μM, 72 hr, Table 4",80.9 ± 4.4%
same,"viability at 96 h, 5 μM","[2]; LOV 5 μM, 96 hr",63.2 ± 2%
same,"viability at 120 h, 5 µM","[2]; LOV 5 μM, 120 hr",55.1 ± 5%
same,"viability at 48 h, 10 μM","[2]; LOV 10 μM, 48 hr",85.8 ± 2.7%
same,"viability at 48 h, 10 μM","[2]; LOV 10 μM, 48 hr, Table 4",85.8 ± 2.7%
same,"viability at 72 h, 10 μM","[2]; LOV 10 μM, 72 hr",78.7 ± 5.3%
same,"viability at 72 h, 10 μM","[2]; LOV 10 μM, 72 hr, Table 4",78.7 ± 5.3%
same,"viability at 96 h, 10 μM","[2]; LOV 10 μM, 96 hr",55.1 ± 5%
same,"viability at 120 h, 10 µM","[2]; LOV 10 μM, 120 hr",33.8 ± 3.8%
same,"viability at 48 h, 20 μM","[2]; LOV 20 μM, 48 hr",79.9 ± 2.7%
same,"viability at 72 h, 20 μM","[2]; LOV 20 μM, 72 hr",75.3 ± 4.2%
same,"viability at 72 h, 50 μM","[2]; LOV 50 μM 48 hr, then LOV 50 μM without MVA another 24 hr",57.8 ± 6.2%
same,"viability at 96 h, 50 µM","[2]; LOV 50 μM 48 hr, then LOV 50 μM without MVA another 48 hr",12.7 ± 2.6%
same,"viability at 120 h, 50 µM","[2]; LOV 50 μM 48 hr, then LOV 50 μM without MVA another 72 hr",4 ± 0.6%
same,"viability at 48 h, 50 μM","[2]; LOV 50 μM, 48 hr",73.1 ± 3.2%
same,"viability at 72 h, 50 μM","[2]; LOV 50 μM, 72 hr",58.2 ± 4.2%
same,"viability at 72 h, 1 μM","[2]; lovastatin 1 μM, 72 hr",88.7 ± 1.3%
same,"viability at 72 h, 2 μM","[2]; lovastatin 2 μM, 72 hr",86.2 ± 1.9%
same,"viability at 48 h, 5 μM","[2]; lovastatin 5 μM 48 hr, then no CAPE 48 hr",75.2 ± 1.6%
same,"viability at 48 h, 5 μM","[2]; lovastatin 5 μM 48 hr, then no taxol 48 hr",85.8 ± 4.5%
same,"viability at 72 h, 5 μM","[2]; lovastatin 5 μM 72 hr, then no taxol 48 hr",81.3 ± 3.8%
same,"viability at 72 h, 5 μM","[2]; lovastatin 5 μM 72 hr, then no taxol 72 hr",67.2 ± 0.5%
same,"viability at 72 h, 5 μM","[2]; lovastatin 5 μM alone, 72 hr, Table 23",66.8 ± 1.5%
same,"viability at 72 h, 5 μM","[2]; lovastatin 5 μM, 72 hr",80.9 ± 4.4%
same,"viability at 48 h, 10 μM","[2]; lovastatin 10 μM 48 hr, then no CAO 48 hr",75 ± 3.3%
same,"viability at 48 h, 10 μM","[2]; lovastatin 10 μM 48 hr, then no CAPE 48 hr",66.7 ± 2.4%
same,viability at 10 µM,"[2]; lovastatin 10 μM 48 hr, then no GL-M1 48 hr",76.9 ± 2.6%
same,"viability at 48 h, 10 μM","[2]; lovastatin 10 μM 48 hr, then no taxol 48 hr",69.1 ± 3.1%
same,"viability at 72 h, 10 μM","[2]; lovastatin 10 μM 72 hr, then no taxol 48 hr",54.7 ± 5.9%
same,"viability at 72 hr, 10 μM","[2]; lovastatin 10 μM 72 hr, then no taxol 72 hr",48 ± 2.9%
same,"viability at 72 h, 10 μM","[2]; lovastatin 10 μM alone, 72 hr, Table 23",57.8 ± 11.2%
same,"viability at 96 h, 10 μM","[2]; lovastatin 10 μM alone, 96 hr, Table 10",51.9 ± 4.4%
same,"viability at 96 h, 10 μM","[2]; lovastatin 10 μM alone, 96 hr, Table 21",52.4 ± 5.5%
same,"viability at 96 h, 10 μM","[2]; lovastatin 10 μM alone, 96 hr, Table 25",50.3 ± 4.9%
same,"viability at 72 h, 10 μM","[2]; lovastatin 10 μM, 72 hr",78.7 ± 5.3%
same,"viability at 72 h, 20 μM","[2]; lovastatin 20 μM, 72 hr",75.3 ± 4.2%
same,"viability at 48 h, 50 μM","[2]; lovastatin 50 μM 48 hr, then no taxol 48 hr",14.6 ± 1.3%
same,"viability at 72 h, 50 μM","[2]; lovastatin 50 μM, 72 hr",58.2 ± 4.2%
same,IC50,"[3]; HepG2, 48 h, read-out: IC50 (cell viability), 48 hr, Table 3",97.2 ± 2.1 µM
same,IC50,"[3]; HepG2, 48 h, read-out: IC50 (cell viability), 48 hr, Table 4",97.2 µM
same,IC50,"[3]; HepG2, 48 h, read-out: IC50 of lovastatin (cell viability), 48 hr treatment",97.2 ± 2.1 µM
same,IC50,"[3]; HepG2, 72 h, read-out: IC50 (cell viability), 72 hr, Table 3",63.6 ± 3.7 µM
same,IC50,"[3]; HepG2, 72 h, read-out: IC50 (cell viability), 72 hr, Table 4",62.3 µM
same,IC50,"[3]; HepG2, 72 h, read-out: IC50 of lovastatin (cell viability), 72 hr treatment",62.3 ± 3.7 µM
same,IC50,"[3]; HepG2, 96 h, read-out: IC50 (cell viability), 96 hr",13.1 µM
same,IC50,"[3]; HepG2, 120 h, read-out: IC50 (cell viability), 120 hr",6.2 µM
same,Cell viability (cell number),[3]; then LOV 50 μM without MVA another 24 hr,10.6 ± 0.7^b 1 × 10^3 cells
same,Cell viability (cell number),[3]; then LOV 50 μM without MVA another 48 hr,3.6 ± 1.6^b 1 × 10^3 cells
same,Cell viability (cell number),[3]; then LOV 50 μM without MVA another 72 hr,1.7 ± 0.5^b 1 × 10^3 cells
same,cell cycle arrest stage,[4],G0/G1 arrest
